These results are taken from patent publication US8697356B2, “Single-molecule-format probe and utilization thereof” (National Institute of Advanced Industrial Science and …, priority 2008, dated 2014).

Holding throughout (assay type): cell-based, African green monkey
Assay [1] relates to cytosolic Ca^2+. The assay is described as follows: Retention of Ca^2+ levels after wash-out, COS-7 cells carrying pCPG (Example 9). The conditions noted are these: CPG; 20 minutes stimulation; thapsigargin or cyproheptadine added to 0.5 mM histamine or ATP; 2 μM ionomycin. As to the method:
Retention of cytosolic calcium Ca^2+ levels in response to an external stimulus were monitored on the basis of the luminescence intensities from COS-7 cells carrying pCPG.
The cells were washed twice with PBS after ligand stimulation, and harvested by trypsinization and centrifugation. This wash-out terminates the external stimulation of ligands for elevating cytosolic Ca^2+ levels. The cells were resuspended with a 40 mL substrate buffer carrying coelenterazine, and then transferred to a test tube to determine the luminescence with a luminometer (Minilumat LB9506).

The next assay has as its system COS-7 cells. The assay is described as follows: Saturation rate of substrate in COS-7 cells carrying pCPG-ctrl (Example 13). The settings on record: HBSS buffer. As to the method:
A reaction rate of coelenterazine saturation in COS-7 cells was monitored. […] The cells on the plate were washed once with HBSS buffer and were saturated with 500 μL HBSS buffer. The luminescence variances after coelenterazine addition were monitored with a bioluminescence plate reader (Mithras LB 940; Berthold).

Assay [2] deals with cytosolic Ca^2+. The assay is described as follows: Ca^2+ dynamics in COS-7 cells transfected with pCPG or pSMG (Example 8). The conditions noted are these: 1 mM histamine, CPG. An excerpt: The dynamics of cytosolic Ca^2+ in COS-7 cells were monitored in the cells transfected with pCPG and in the cells transfected with SMG shown in FIG. 14 as a control. The free Ca^2+ was a representative second messenger in living mammalian cells. […] The outer terminals were respectively fused with M13 peptide and calmodulin. SMG is different from CPG in that calmodulin and M13 peptide are linked between N- and C-terminal fragments. That is, the luciferases are not circularly permutated in SMG.
As in Example 2, COS-7 cells cultured in a black, glass-bottom plate (24-well) were transfected with pCPG or pSMG, and stocked in a cell incubator for 16 hours. The cells were saturated with a 300 μL Hank's balanced salt solution (HBSS) buffer containing coelenterazine.

The test system of the next assay is cytoplasm Ca^2+. The assay is described as follows: Ligand affinity of CPG and CPG-ctrl, histamine-triggered Ca^2+ (Example 12). An excerpt: First, GLuc was dissected at Q105, and the original N- and C-terminals of the fragments were circularly permutated with a 10 GS linker. The outer terminals were respectively fused with M13 and CaM to form CPG. CPG-ctrl which is different from CPG only in that GLuc was not circularly permutated was parallelly formed as a control probe of CPG by the use of the same components as CPG (FIG. 20).
As in Example 2, COS-7 cells cultured in a black, glass-bottom plate (24-well) were transiently transfected with pCPG or pCPG-ctrl, and stocked in a cell incubator for 16 hours. The cells were saturated with a 300 μL HBSS buffer containing coelenterazine.

On to `Nc1ncnc2c1ncn2[C@@H]1O[C@H](COP(=O)(O)OP(=O)(O)OP(=O)(O)O)[C@@H](O)[C@H]1O` [ATP], for which the “cytosolic Ca^2+ levels (luminescence) after wash-out” value (shortened to “cytosolic Ca^2+ levels”) in the assay with cytosolic Ca^2+ [1] is given as “quickly decreased”. Regarding `C[C@H](CCC(=O)O)C[C@H](C)C[C@H](C)C(=O)/C=C(\O)[C@H](C)C[C@H](C)C/C=C/[C@@H](C)[C@@H](O)[C@@H](C)[C@@H](O)C[C@@H]1CC[C@@](C)([C@H]2CC[C@@](C)([C@@H](C)O)O2)O1` [Ionomycin, ionomycin], the “cytosolic Ca^2+ levels” value in the assay with cytosolic Ca^2+ [1] is “retaining certain levels”.

For the compound `Oc1ccc(Cc2nc3c(Cc4ccccc4)nc(-c4ccc(O)cc4)cn3c2O)cc1` [coelenterazine], the “time in which the COS-7 cells were saturated” value in the assay with COS-7 cells came out at 8.5 min. Turning to `NCCc1c[nH]cn1` [histamine], the “time to reach plateau of luminescence” value in the assay on cytosolic Ca^2+ [2] is approximately 10 min; in the assay with cytoplasm Ca^2+ (1 mM histamine, CPG) it was approximately 10 min. Also, the “concentration from which CPG started sensing” value in the assay on cytoplasm Ca^2+ was 0.25 mM. Take `C/C=C(/C)C(=O)O[C@H]1C(C)=C2[C@H]([C@@H]1OC(=O)CCCCCCC)[C@@](C)(OC(C)=O)C[C@H](OC(=O)CCC)[C@@]1(O)[C@H]2OC(=O)[C@@]1(C)O` [thapsigargin]: in the assay with cytosolic Ca^2+ [1], the “cytosolic Ca^2+ levels” value is “retained”.
